Results from publication PMC5963640 (Journal of Ocular Pharmacology and Therapeutics, 2018).

Columns and labels:
[1] = molecular target: T1, protein kinase C-theta (PKC-theta) (Homo sapiens, UniProt Q04759); assay: Kinase-Glo luminescent protein kinase assay, PKC-theta; format: biochemical; conditions: average of ≥3 replicate experiments; read-out: PKCT Ki
T1 construct: purchased Invitrogen/Life Technologies

[2] = molecular target: T2, calcium/calmodulin-dependent protein kinase II Alpha (CAMK2A) (Homo sapiens, UniProt Q9UQM7); assay: Kinase-Glo luminescent protein kinase assay, CAMK2A; format: biochemical; conditions: average of ≥3 replicate experiments; read-out: CAM2A Ki
T2 construct: purchased Invitrogen/Life Technologies
T2 sequence (Q9UQM7 whole entry): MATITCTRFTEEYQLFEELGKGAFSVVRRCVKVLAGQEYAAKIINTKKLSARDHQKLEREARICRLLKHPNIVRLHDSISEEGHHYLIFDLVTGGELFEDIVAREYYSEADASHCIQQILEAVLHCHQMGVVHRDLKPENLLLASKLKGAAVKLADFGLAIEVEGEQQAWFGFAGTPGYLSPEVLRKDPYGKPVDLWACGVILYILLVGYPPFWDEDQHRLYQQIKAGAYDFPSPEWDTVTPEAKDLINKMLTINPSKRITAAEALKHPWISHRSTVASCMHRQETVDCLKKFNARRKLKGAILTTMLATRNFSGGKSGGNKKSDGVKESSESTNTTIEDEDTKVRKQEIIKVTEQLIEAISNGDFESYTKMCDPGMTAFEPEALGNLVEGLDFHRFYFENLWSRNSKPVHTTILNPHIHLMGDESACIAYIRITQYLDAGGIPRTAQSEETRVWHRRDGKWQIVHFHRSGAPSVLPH

[3] = test system: primary porcine TM (PTM) cells; assay: Disruption of actin stress fibers, high-content screening; format: cell-based; conditions: Sus scrofa, 6 h, read-out: PTM IC50 (disruption of actin stress fibers)
[4] = test system: transformed human TM (HTM) cells (TM-1); assay: Disruption of focal adhesions, high-content screening; format: cell-based; conditions: 6 h, read-out: HTM IC50 (disruption of focal adhesions)
[5] = test system: primary HTM cells; assay: TGF-β2-induced expression of fibrogenic markers, immunofluorescence; format: cell-based, human; conditions: 500 nM netarsudil plus 8 ng/mL TGF-β2, 24 h
Protocol: Cells were grown on gelatin (2%)-coated coverslips until they were semi-confluent. […] The cells were then assessed for induction of the fibrogenic markers α-smooth muscle actin (α-SMA), Collagen I, and fibroblast-specific protein 1 (FSP1) using immunofluorescence staining as previously described.[29] Mouse monoclonal antibody against α-SMA was purchased from Sigma-Aldrich, rabbit anti-FSP1 antibody from EMD Millipore (Billerica, MA), and rabbit anti-Collagen I antibody from Abcam (Cambridge, MA).

[6] = In vitro corneal metabolism, dog; format: in vitro ADME, beagle dogs; conditions: beagle, corneal tissue punches, 37°C, pH 6.5, read-out: t1/2 of corneal metabolism
Protocol: (§1) Enucleated pig eyes (n = 3) were harvested at a local abattoir, stored on ice, and used within 4 h of slaughter. For eyes harvested from beagle dogs (n = 3; Calvert Laboratories, Pittston, PA), Dutch Belted rabbits (n = 3; Robinson Services, Mockesville, NC), and cynomolgus monkeys (n = 4; Covance, Madison, WI), intact globes were stored in K-Sol corneal preservation buffer[31] under cold conditions and used within 24 h of sacrifice. Human corneas (n = 3) were acquired from The Eye Bank for Sight Restoration (New York, NY). The weights of the corneal punches were approximately the same for the dog, pig, human, and rabbit, whereas monkey corneal punches were approximately half of the weight of the others. Corneal punches were stored in phosphate-buffered saline and used within 1 h of preparation.
(§2) Samples were incubated at 37°C and reactions were subsequently terminated at appropriate time intervals by transferring a 100 μL aliquot of solution to an equal volume of cold acetonitrile followed by thorough trituration. The samples were centrifuged at 10,000 g for 10 min and the supernatants analyzed by high performance liquid chromatography (HPLC) using a Waters Alliance 2695 HPLC (Milford, MA) equipped with a Symmetry C18 4.6 × 75 mm 3.5 μm column.

[7] = In vitro corneal metabolism, monkey; format: in vitro ADME, cynomolgus monkeys; conditions: corneal tissue punches, 37°C, pH 6.5, read-out: t1/2 of corneal metabolism
Protocol: as §1, §2

[8] = In vitro corneal metabolism, rabbit; format: in vitro ADME, Dutch Belted rabbits; conditions: Dutch Belted, corneal tissue punches, 37°C, pH 6.5, read-out: t1/2 of corneal metabolism
Protocol: as §1, §2

[9] = In vitro corneal metabolism, pig; format: in vitro ADME; conditions: corneal tissue punches, 37°C, pH 6.5, read-out: t1/2 of corneal metabolism
Protocol: as §1, §2

[10] = In vitro corneal metabolism, human; format: in vitro ADME; conditions: corneal tissue punches, 37°C, pH 6.5, read-out: t1/2 of corneal metabolism
Protocol: as §1, §2

[11] = Ocular metabolism: levels in aqueous humor after topical ocular dosing; format: in vivo, New Zealand rabbits
Protocol: In groups 1 and 2, the test article was dosed only once, and 100 μL samples of AH were taken from each eye by paracentesis at 4 or 6 h postdose, respectively. In groups 3 and 4, the test article was dosed once daily for 3 or 4 days, respectively, and 100 μL samples of AH were taken 4 h after dosing.

[12] = Absorption and distribution of radioactivity after single topical ocular dose; format: in vivo, Dutch Belted rabbits; conditions: male, Dutch Belted, rabbit, in vivo
Protocol: A single topical ocular dose of 0.02% ^14C-netarsudil mesylate (35 μL drop) was administered to both eyes of 3 male Dutch Belted rabbits in each of 7 groups. At 0.25, 0.5, 1, 4, 8, 24, and 48 h postdose, the following samples were harvested from each group: whole blood, derived plasma, AH, vitreous humor, cornea, conjunctiva, lens, iris/ciliary body, retina-choroid-plexus, liver, and kidneys. All samples were assayed for total radioactivity. A study of the same design was conducted for AR-12286, using a single topical ocular dose of 0.5% ^3H-AR-12286 (35 μL drop).

[13] = molecular target: norepinephrine transporter (NET) (Homo sapiens, UniProt P23975); assay: NET inhibitory activity (data not shown)
Chain of norepinephrine transporter (NET) (P23975 whole entry, species assumed): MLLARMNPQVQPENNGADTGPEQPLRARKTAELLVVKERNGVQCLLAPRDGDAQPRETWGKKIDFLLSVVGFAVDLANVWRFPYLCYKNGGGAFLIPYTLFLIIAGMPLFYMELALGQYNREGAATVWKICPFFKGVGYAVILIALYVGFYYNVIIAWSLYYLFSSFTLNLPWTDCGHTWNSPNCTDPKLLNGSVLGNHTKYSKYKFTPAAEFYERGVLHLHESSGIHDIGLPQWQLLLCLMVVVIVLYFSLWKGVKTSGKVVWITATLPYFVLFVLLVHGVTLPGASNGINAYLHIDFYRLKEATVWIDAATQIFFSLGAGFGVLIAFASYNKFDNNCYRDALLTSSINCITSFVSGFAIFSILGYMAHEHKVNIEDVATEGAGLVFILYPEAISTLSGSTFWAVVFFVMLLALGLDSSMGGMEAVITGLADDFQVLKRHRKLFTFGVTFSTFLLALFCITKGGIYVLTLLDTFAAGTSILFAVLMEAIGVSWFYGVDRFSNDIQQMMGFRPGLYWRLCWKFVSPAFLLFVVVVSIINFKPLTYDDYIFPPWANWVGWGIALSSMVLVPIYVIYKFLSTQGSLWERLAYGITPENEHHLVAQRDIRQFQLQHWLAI

[14] = test system: live monkeys; set-up: method as in PMID 25535688; conditions: 6 h after topical dosing, 0.04%; cited from earlier work
[15] = test system: patients; set-up: method as in PMID 25270273; conditions: 0.02% once daily in the evening, Day 7 and 28 morning visits; cited from earlier work
[16] = test system: normotensive Dutch Belted rabbits; assay: Ocular hypotensive activity (IOP) in rabbits; conditions: for maximal IOP reduction: once daily, Day 3, at 4 or 8 h after dosing
[17] = test system: normotensive Formosan Rock monkeys; assay: Ocular hypotensive activity (IOP) in monkeys; conditions: for maximal IOP reduction: once daily, Day 3, at 4 or 8 h after dosing; for IOP reduction: Day 3
[18] = test system: Dutch Belted rabbits; assay: Ocular tolerability (modified Draize, hyperemia score) in rabbits; conditions: 0.005%, 0.01%, 0.02% and 0.04% solutions
[19] = test system: Formosan Rock monkeys; assay: Ocular tolerability (modified Draize, hyperemia score) in monkeys; conditions: 0.01%, 0.02% and 0.04% solutions, once daily for 3 days

T1 sequence (Q04759 whole entry): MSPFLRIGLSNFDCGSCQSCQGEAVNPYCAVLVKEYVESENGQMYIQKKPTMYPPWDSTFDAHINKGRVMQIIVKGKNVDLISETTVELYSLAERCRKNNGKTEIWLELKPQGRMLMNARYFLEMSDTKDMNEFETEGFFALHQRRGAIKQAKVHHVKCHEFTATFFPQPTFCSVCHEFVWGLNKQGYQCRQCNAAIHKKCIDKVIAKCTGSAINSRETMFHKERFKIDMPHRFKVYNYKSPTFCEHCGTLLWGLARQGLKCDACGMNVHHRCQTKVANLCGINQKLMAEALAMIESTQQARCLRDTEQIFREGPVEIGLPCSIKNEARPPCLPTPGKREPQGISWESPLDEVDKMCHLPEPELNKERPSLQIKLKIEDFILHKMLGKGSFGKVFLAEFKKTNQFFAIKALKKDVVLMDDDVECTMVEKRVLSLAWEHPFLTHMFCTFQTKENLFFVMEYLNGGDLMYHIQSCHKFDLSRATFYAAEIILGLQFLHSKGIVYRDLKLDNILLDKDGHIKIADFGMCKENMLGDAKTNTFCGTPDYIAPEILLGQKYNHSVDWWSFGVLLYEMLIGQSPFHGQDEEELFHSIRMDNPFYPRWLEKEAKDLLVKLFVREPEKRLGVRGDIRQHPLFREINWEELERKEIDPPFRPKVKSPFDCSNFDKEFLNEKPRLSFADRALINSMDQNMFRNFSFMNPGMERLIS

Cc1ccc(C(=O)OCc2ccc([C@@H](CN)C(=O)Nc3ccc4cnccc4c3)cc2)c(C)c1 [Netarsudil]
Ki [1]: 92 nM | Ki [2]: 5310 nM | IC50 [3]: 79 nM | IC50 [4]: 16 nM | induction of fibrogenic markers α-SMA, FSP1 and Collagen I by TGF-β2 [5]: abolished the induction of these markers by TGF-β2 | half-life at 200 µM [6]: 1.63 h | half-life at 200 µM [7]: 1.82 h | half-life at 200 µM [8]: 2.33 h | half-life at 200 µM [9]: 2.6 h | half-life at 200 µM [10]: 2.92 h | concentration in AH ([11]; after topical netarsudil 0.02%, below the limit of detection in all but 1 of the 24 samples): < 0.1 ng/mL | concentration at 4 h ([11]; male, New Zealand, rabbit, aqueous humor, topical, 0.02 %, read-out: concentration in AH, single sample above limit of detection): 1.82 ng/mL | AH half-life of related radioactivity, longer than that for AR-12286 [12]: ~60% | Tmax in AH ([12]; topical or ocular): 8 h | terminal elimination half-life (T1/2,e) in AH ([12]; topical or ocular): 16 to 17 h | NET inhibitory activity [13]: possesses NET inhibitory activity | increase in tonographic outflow facility [14]: 53% | patients scored as having no hyperemia or trace hyperemia [15]: 65% to 76 | maximal IOP reduction ([16]; 0.005% solution): 2.5 ± 0.2 mmHg | maximal IOP reduction ([16]; 0.01% solution): 4.6 ± 0.2 mmHg | maximal IOP reduction ([16]; 0.02% solution): 5.0 ± 0.6 mmHg | maximal IOP reduction ([16]; 0.04% solution): 8.1 ± 0.7 mmHg | IOP reduction ([16]; 0.04%, 8 h after dosing on Day 3): 8.1 ± 0.7 mmHg | time of peak IOP-lowering efficacy after dosing ([16]; Day 1): 8 h | time IOP reductions were sustained after once daily dosing ([16]; rabbits): at least 24 h | maximal IOP reduction ([17]; 0.01% solution): 4.2 ± 0.2 mmHg | maximal IOP reduction ([17]; 0.02% solution): 5.8 ± 0.3 mmHg | time for which full IOP-lowering effect was maintained after dosing ([17]; 0.04%): 24 h | maximal IOP reduction ([17]; 0.04% solution): 7.5 ± 1.1 mmHg | IOP reduction ([17]; 0.04%, 4 h after dosing): 7.5 ± 0.7 mmHg | IOP reduction ([17]; 0.04%, 24 h after dosing): 7.5 ± 1.1 mmHg | time IOP reductions were sustained after once daily dosing ([17]; monkeys): at least 24 h | persistence of hyperemia after dosing [18]: 4 to 8 h | hyperemia (scored 0 to 3, none to severe) ([18]; once daily for 3 days): trace (+0.5) to mild hyperemia (+1) | adverse effect noted (hyperemia) [19]: trace to mild hyperemia was the only adverse effect noted
